Experimental data taken from patent publication US20240043379A1, “PRODRUGS OF CYTOTOXIC ACTIVE AGENTS HAVING ENZYMATICALLY CLEAVABLE GROUPS” (Bayer Pharma Aktiengesellschaft, priority 2016, published 2024).

Legend:
[1] = Caco-2 flux assay for cell permeability; assay type: in vitro ADME; conditions: human; for Papp B→A at 2 h: Caco-2, 2 hours incubation; for efflux ratio at 2 h: ratio of Papp (B-A) to Papp (A-B), Caco-2
[2] = test system: KPL4: human breast cancer cell line; test: MTT assay, cytotoxic effect on KPL4; assay type: cell-based; conditions: Table 2, metabolites and small-molecule reference examples
Method: (§1) The analysis of the cytotoxic effects of the ADCs was carried out with various cell lines:
(§2) The cells were cultivated by the standard method as stated by the American Tissue Culture Collection (ATCC) or the Leibniz-Institut DSMZ-Deutsche Sammlung von Mikroorganismen und Zellkulturen GmbH (DSMZ) for the cell lines in question.
(§3) The cells were then incubated in an incubator at 37° C., and 5% carbon dioxide. […] To this end, the MTT reagent was incubated with the cells for 4 h, followed by lysis of the cells overnight by addition of the detergent. […] The measured data were used to calculate the IC50 of the growth inhibition using the DRC (dose response curve). The proliferation of cells which were not treated with test substance but were otherwise identically treated was defined as the 100% figure.

[3] = test system: NCI-H292: human mucoepidermoid lung carcinoma cells; test: MTT assay, cytotoxic effect on NCI-H292; assay type: cell-based; conditions: Table 2, metabolites and small-molecule reference examples
Method: as §1, §2, §3

[4] = test system: SK-HEP-1: human liver cell cancer line; test: MTT assay, cytotoxic effect on SK-HEP-1; assay type: cell-based; conditions: Table 2, metabolites and small-molecule reference examples
Method: as §1, §2, §3

Caco-2 cells = test: Caco-2 flux assay for cell permeability; assay type: in vitro ADME; conditions: Caco-2, 2 hours incubation

Row | Structure (SMILES) | Papp B→A at 2 h [1] | efflux ratio at 2 h [1] | IC50 [3] | IC50 [4] | Papp (B-A) (Caco-2 cells) | also measured
1 | CC(C)(C)[C@H](c1cc(-c2cc(F)ccc2F)cn1Cc1ccccc1)N(CC[C@H](N)C(=O)NCCNC(=O)CCCC(=O)NCCCC[C@H](N)C(=O)O)C(=O)CO.O=C(O)C(F)(F)F [Example M29, N^6-(5-{[2-({(2S)-2-Amino-4-[{(1R)-1-[1-benzyl-4-(2,5-difluorophenyl)-1H-pyrrol-2-yl]-2,2-dimethylpropyl}(glycoloyl)amino]butanoyl}amino)ethyl]amino}-5-oxopentanoyl)-L-lysine/trifluoroacetic acid (1:1)] | 0.41 ×10⁻⁶ cm/s | 5.3 |  |  |  | 
2 | CC(C)(C)[C@H](c1cc(-c2cc(F)ccc2F)cn1Cc1ccccc1)N(CCCN)C(=O)CSC[C@H](NC(=O)CCOCCOCCOCCOCCNC(=O)CNC(=O)CC(SC[C@H](N)C(=O)O)C(=O)O)C(=O)O.O=C(O)C(F)(F)F.O=C(O)C(F)(F)F (stereo partly drawn) [Example M20, (1R,4R,27R,33R)-1-Amino-32-(3-aminopropyl)-33-[1-benzyl-4-(2,5-difluorophenyl)-1H-pyrrol-2-yl]-34,34-dimethyl-6,9,25,31-tetraoxo-13,16,19,22-tetraoxa-3,29-dithia-7,10,26,32-tetraazapentatriacontane-1,4,27-tricarboxylic acid/trifluoroacetic acid (1:2)] | 0.09 ×10⁻⁶ cm/s |  |  |  |  | 
3 | CC(C)(C)[C@H](c1cc(-c2cc(F)ccc2F)cn1Cc1ccccc1)N(CC[C@H](N)C(=O)NCCNC(=O)CNC(=O)C(CC(=O)O)SC[C@H](N)C(=O)O)C(=O)CO (single isomer, unassigned) [Example M16] |  |  | 143 nM | 44 nM |  | IC50 [2]: 195 nM
4 | CC(C)(C)[C@H](c1cc(-c2cc(F)ccc2F)cn1Cc1ccccc1)N(CC[C@H](N)C(=O)NCCNC(=O)CNC(=O)CC(SC[C@H](N)C(=O)O)C(=O)O)C(=O)CO.O=C(O)C(F)(F)F (stereo partly drawn) [Example M26, 4-[(2-{[2-({(2S)-2-Amino-4-[{(1R)-1-[1-benzyl-4-(2,5-difluorophenyl)-1H-pyrrol-2-yl]-2,2-dimethylpropyl}(glycoloyl)amino]butanoyl}amino)ethyl]amino}-2-oxoethyl)amino]-2-{[(2R)-2-amino-2-carboxyethyl]sulphanyl}-4-oxobutanoic acid/trifluoroacetic acid (1:1)] |  |  | 63.8 nM | 19 nM | 1.3 ×10⁻⁶ cm/s | 
5 | CC(C)(C)[C@H](c1cc(-c2cc(F)ccc2F)cn1Cc1ccccc1)N(CC[C@H](N)C(=O)N[C@H](CCC(=O)O)C(=O)O)C(=O)CO.O=C(O)C(F)(F)F [Example M25, N-{(2S)-2-Amino-4-[{(1R)-1-[1-benzyl-4-(2,5-difluorophenyl)-1H-pyrrol-2-yl]-2,2-dimethylpropyl}(glycoloyl)amino]butanoyl}-L-glutamic acid/trifluoroacetic acid (1:1)] |  |  |  |  | 0.81 ×10⁻⁶ cm/s | IC50 ([2]; Homo sapiens, KPL4): 500 nM; IC50 ([3]; Homo sapiens, NCI-H292): 500 nM; IC50 ([4]; Homo sapiens, SK-HEP1): 500 nM
6 | CC(C)(C)[C@H](c1cc(-c2cc(F)ccc2F)cn1Cc1ccccc1)N(CC[C@H](N)C(=O)NCCNC(=O)CNC(=O)CCCC(=O)NCCCC[C@H](N)C(=O)O)C(=O)CO.O=C(O)C(F)(F)F [Example M28, N^6-{(3R,7S)-7-Amino-3-[1-benzyl-4-(2,5-difluorophenyl)-1H-pyrrol-2-yl]-4-glycoloyl-2,2-dimethyl-8,13,16,20-tetraoxo-4,9,12,15-tetraazaicosan-20-yl}-L-lysine/trifluoroacetic acid (1:1)] | 0.19 ×10⁻⁶ cm/s | 1 |  |  |  | 
